Experiments:
Experiment in all cases: relative viability (nuclei count vs DMSO), 5 days (fraction); higher = more cells survive
HCC-78 = tested on: HCC-78
Summary of the method: (§1)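 Medians of duplicate plates are given as relative viability. That measure is the nuclei count in treated wells divided by the count in vehicle wells. Counts were taken on 4× images of lung cancer cell lines in 1536-well plates, 5 days after pin-tool dosing the day after seeding with one drug alone or a fixed anchor-drug dose plus five library-drug doses (not always all listed) in √10 steps.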

NCI-H1623 = tested on: NCI-H1623
Summary of the method: as §1

NCI-H1648 = tested on: NCI-H1648
Summary of the method: as §1

NCI-H2009 = tested on: NCI-H2009
Summary of the method: as §1

NCI-H2342 = tested on: NCI-H2342
Summary of the method: as §1

NCI-H460 = tested on: NCI-H460
Summary of the method: as §1

NCI-H522 = tested on: NCI-H522
Summary of the method: as §1

NCI-H661 = tested on: NCI-H661
Summary of the method: as §1

`O=c1cc(N2CCOCC2)oc2c(-c3cccc4c3sc3ccccc34)cccc12` + COc1cccc2cc(-c3nc([C@H]4CC[C@H](C(=O)O)CC4)n4ncnc(N)c34)[nH]c12 [OSI-027] (partner 0.5 µM) gave a relative viability (HCC-78; first compound 0.01 µM) of 0.369, a relative viability (HCC-78; first compound 0.03162 µM) of 0.362 and a relative viability (HCC-78; first compound 0.1 µM) of 0.297. For the same compound, the relative viability (HCC-78; first compound 0.3162 µM) was 0.347, the relative viability (HCC-78; first compound 1 µM) was 0.342 and the relative viability (NCI-H1623; first compound 0.01 µM) was 0.45. It also gave a relative viability (NCI-H1623; first compound 0.03162 µM) of 0.477, a relative viability (NCI-H1623; first compound 0.1 µM) of 0.362 and a relative viability (NCI-H1623; first compound 0.3162 µM) of 0.407. The relative viability (NCI-H1623; first compound 1 µM) was 0.429, the relative viability (NCI-H1648; first compound 0.01 µM) was 0.244 and the relative viability (NCI-H1648; first compound 0.03162 µM) was 0.253. The relative viability (NCI-H1648; first compound 0.1 µM) was 0.239, the relative viability (NCI-H1648; first compound 0.3162 µM) was 0.235 and the relative viability (NCI-H1648; first compound 1 µM) was 0.235. It also gave a relative viability (NCI-H2009; first compound 0.01 µM) of 0.697, a relative viability (NCI-H2009; first compound 0.03162 µM) of 0.791 and a relative viability (NCI-H2009; first compound 0.1 µM) of 0.664. The relative viability (NCI-H2009; first compound 0.3162 µM) was 0.65, the relative viability (NCI-H2009; first compound 1 µM) was 0.654 and the relative viability (NCI-H2342; first compound 0.01 µM) was 0.641. It also gave a relative viability (NCI-H2342; first compound 0.03162 µM) of 0.591, a relative viability (NCI-H2342; first compound 0.1 µM) of 0.652 and a relative viability (NCI-H2342; first compound 0.3162 µM) of 0.715. For the same compound, the relative viability (NCI-H2342; first compound 1 µM) was 0.533, the relative viability (NCI-H460; first compound 0.01 µM) was 0.659 and the relative viability (NCI-H460; first compound 0.03162 µM) was 0.717. For the same compound, the relative viability (NCI-H460; first compound 0.1 µM) was 0.683, the relative viability (NCI-H460; first compound 0.3162 µM) was 0.68 and the relative viability (NCI-H460; first compound 1 µM) was 0.653. The relative viability (NCI-H522; first compound 0.01 µM) was 0.83, the relative viability (NCI-H522; first compound 0.03162 µM) was 0.708 and the relative viability (NCI-H522; first compound 0.1 µM) was 0.496. It also gave a relative viability (NCI-H522; first compound 0.3162 µM) of 0.737, a relative viability (NCI-H522; first compound 1 µM) of 0.737 and a relative viability (NCI-H661; first compound 0.01 µM) of 0.692. For the same compound, the relative viability (NCI-H661; first compound 0.03162 µM) was 0.738, the relative viability (NCI-H661; first compound 0.1 µM) was 0.772 and the relative viability (NCI-H661; first compound 0.3162 µM) was 0.756. The relative viability (NCI-H661; first compound 1 µM) was 0.708.

`O=c1cc(-c2cccc3c2Sc2ccccc2S3)oc(N2CCOCC2)c1` + COc1cccc2cc(-c3nc([C@H]4CC[C@H](C(=O)O)CC4)n4ncnc(N)c34)[nH]c12 [OSI-027] (partner 0.5 µM) was tested, and the relative viability (HCC-78; first compound 0.08 µM) was 0.341, the relative viability (HCC-78; first compound 0.253 µM) was 0.385 and the relative viability (HCC-78; first compound 0.8 µM) was 0.295. It also gave a relative viability (HCC-78; first compound 2.53 µM) of 0.344, a relative viability (HCC-78; first compound 8 µM) of 0.339 and a relative viability (NCI-H1623; first compound 0.08 µM) of 0.593. It also gave a relative viability (NCI-H1623; first compound 0.253 µM) of 0.447, a relative viability (NCI-H1623; first compound 0.8 µM) of 0.346 and a relative viability (NCI-H1623; first compound 2.53 µM) of 0.431. It also gave a relative viability (NCI-H1623; first compound 8 µM) of 0.374, a relative viability (NCI-H1648; first compound 0.08 µM) of 0.264 and a relative viability (NCI-H1648; first compound 0.253 µM) of 0.257. For the same compound, the relative viability (NCI-H1648; first compound 0.8 µM) was 0.277, the relative viability (NCI-H1648; first compound 2.53 µM) was 0.22 and the relative viability (NCI-H1648; first compound 8 µM) was 0.252. For the same compound, the relative viability (NCI-H2009; first compound 0.08 µM) was 0.627, the relative viability (NCI-H2009; first compound 0.253 µM) was 0.663 and the relative viability (NCI-H2009; first compound 0.8 µM) was 0.734. It also gave a relative viability (NCI-H2009; first compound 2.53 µM) of 0.575, a relative viability (NCI-H2009; first compound 8 µM) of 0.553 and a relative viability (NCI-H2342; first compound 0.08 µM) of 0.569. It also gave a relative viability (NCI-H2342; first compound 0.253 µM) of 0.607, a relative viability (NCI-H2342; first compound 0.8 µM) of 0.545 and a relative viability (NCI-H2342; first compound 2.53 µM) of 0.594. For the same compound, the relative viability (NCI-H2342; first compound 8 µM) was 0.568, the relative viability (NCI-H460; first compound 0.08 µM) was 0.605 and the relative viability (NCI-H460; first compound 0.253 µM) was 0.994. For the same compound, the relative viability (NCI-H460; first compound 0.8 µM) was 0.643, the relative viability (NCI-H460; first compound 2.53 µM) was 0.568 and the relative viability (NCI-H460; first compound 8 µM) was 0.527. It also gave a relative viability (NCI-H522; first compound 0.08 µM) of 0.765, a relative viability (NCI-H522; first compound 0.253 µM) of 0.685 and a relative viability (NCI-H522; first compound 0.8 µM) of 0.722. The relative viability (NCI-H522; first compound 2.53 µM) was 0.723, the relative viability (NCI-H522; first compound 8 µM) was 0.803 and the relative viability (NCI-H661; first compound 0.08 µM) was 0.736. The relative viability (NCI-H661; first compound 0.253 µM) was 0.739, the relative viability (NCI-H661; first compound 0.8 µM) was 0.71 and the relative viability (NCI-H661; first compound 2.53 µM) was 0.642. The relative viability (NCI-H661; first compound 8 µM) was 0.647.

`COc1nc(C)cnc1NS(=O)(=O)c1cccnc1-c1ccc(-c2nnco2)cc1` [Zibotentan] + COc1cccc2cc(-c3nc([C@H]4CC[C@H](C(=O)O)CC4)n4ncnc(N)c34)[nH]c12 [OSI-027] (partner 0.5 µM) was tested, and the relative viability (HCC-78; first compound 0.08 µM) was 0.358, the relative viability (HCC-78; first compound 0.253 µM) was 0.332 and the relative viability (HCC-78; first compound 0.8 µM) was 0.356. For the same compound, the relative viability (HCC-78; first compound 2.53 µM) was 0.323, the relative viability (NCI-H1623; first compound 0.08 µM) was 0.423 and the relative viability (NCI-H1623; first compound 0.253 µM) was 0.42. The relative viability (NCI-H1623; first compound 0.8 µM) was 0.424, the relative viability (NCI-H1623; first compound 2.53 µM) was 0.443 and the relative viability (NCI-H1648; first compound 0.08 µM) was 0.255. The relative viability (NCI-H1648; first compound 0.253 µM) was 0.241, the relative viability (NCI-H1648; first compound 0.8 µM) was 0.256 and the relative viability (NCI-H1648; first compound 2.53 µM) was 0.242. For the same compound, the relative viability (NCI-H2009; first compound 0.08 µM) was 0.677, the relative viability (NCI-H2009; first compound 0.253 µM) was 0.632 and the relative viability (NCI-H2009; first compound 0.8 µM) was 0.711. For the same compound, the relative viability (NCI-H2009; first compound 2.53 µM) was 0.754, the relative viability (NCI-H2342; first compound 0.08 µM) was 0.621 and the relative viability (NCI-H2342; first compound 0.253 µM) was 0.559. The relative viability (NCI-H2342; first compound 0.8 µM) was 0.576, the relative viability (NCI-H2342; first compound 2.53 µM) was 0.758 and the relative viability (NCI-H460; first compound 0.08 µM) was 0.665. The relative viability (NCI-H460; first compound 0.253 µM) was 0.408, the relative viability (NCI-H460; first compound 0.8 µM) was 0.593 and the relative viability (NCI-H460; first compound 2.53 µM) was 0.66. For the same compound, the relative viability (NCI-H522; first compound 0.08 µM) was 0.704, the relative viability (NCI-H522; first compound 0.253 µM) was 0.717 and the relative viability (NCI-H522; first compound 0.8 µM) was 0.684. It also gave a relative viability (NCI-H522; first compound 2.53 µM) of 0.835, a relative viability (NCI-H661; first compound 0.08 µM) of 0.801 and a relative viability (NCI-H661; first compound 0.253 µM) of 0.671. For the same compound, the relative viability (NCI-H661; first compound 0.8 µM) was 0.705 and the relative viability (NCI-H661; first compound 2.53 µM) was 0.756.

In the case of `CCN(CC)CCCCNc1ncc2cc(-c3cc(OC)cc(OC)c3)c(NC(=O)NC(C)(C)C)nc2n1` + Cc1cc(Nc2cc(N3CCN(C)CC3)nc(Sc3ccc(NC(=O)C4CC4)cc3)n2)n[nH]1 [Tozasertib] (partner 0.1 µM), the relative viability (HCC-78; first compound 0.01 µM) is reported as 0.433, the relative viability (HCC-78; first compound 0.03162 µM) is reported as 0.399 and the relative viability (HCC-78; first compound 0.1 µM) is reported as 0.507. It also gave a relative viability (HCC-78; first compound 0.3162 µM) of 0.55, a relative viability (HCC-78; first compound 1 µM) of 0.446 and a relative viability (NCI-H1623; first compound 0.01 µM) of 0.67. It also gave a relative viability (NCI-H1623; first compound 0.03162 µM) of 0.454, a relative viability (NCI-H1623; first compound 0.1 µM) of 0.43 and a relative viability (NCI-H1623; first compound 0.3162 µM) of 0.513. It also gave a relative viability (NCI-H1623; first compound 1 µM) of 0.416, a relative viability (NCI-H1648; first compound 0.01 µM) of 0.657 and a relative viability (NCI-H1648; first compound 0.03162 µM) of 0.559. For the same compound, the relative viability (NCI-H1648; first compound 0.1 µM) was 0.406, the relative viability (NCI-H1648; first compound 0.3162 µM) was 0.4 and the relative viability (NCI-H1648; first compound 1 µM) was 0.407. The relative viability (NCI-H2009; first compound 0.01 µM) was 0.816, the relative viability (NCI-H2009; first compound 0.03162 µM) was 0.72 and the relative viability (NCI-H2009; first compound 0.1 µM) was 0.912. The relative viability (NCI-H2009; first compound 0.3162 µM) was 0.821, the relative viability (NCI-H2009; first compound 1 µM) was 0.573 and the relative viability (NCI-H2342; first compound 0.01 µM) was 0.448. It also gave a relative viability (NCI-H2342; first compound 0.03162 µM) of 0.513, a relative viability (NCI-H2342; first compound 0.1 µM) of 0.476 and a relative viability (NCI-H2342; first compound 0.3162 µM) of 0.469. It also gave a relative viability (NCI-H2342; first compound 1 µM) of 0.537, a relative viability (NCI-H460; first compound 0.01 µM) of 0.458 and a relative viability (NCI-H460; first compound 0.03162 µM) of 0.66. It also gave a relative viability (NCI-H460; first compound 0.1 µM) of 0.477, a relative viability (NCI-H460; first compound 0.3162 µM) of 0.474 and a relative viability (NCI-H460; first compound 1 µM) of 0.311. The relative viability (NCI-H522; first compound 0.01 µM) was 0.529, the relative viability (NCI-H522; first compound 0.03162 µM) was 0.604 and the relative viability (NCI-H522; first compound 0.1 µM) was 0.575. The relative viability (NCI-H522; first compound 0.3162 µM) was 0.49, the relative viability (NCI-H522; first compound 1 µM) was 0.534 and the relative viability (NCI-H661; first compound 0.01 µM) was 0.38. For the same compound, the relative viability (NCI-H661; first compound 0.03162 µM) was 0.327, the relative viability (NCI-H661; first compound 0.1 µM) was 0.366 and the relative viability (NCI-H661; first compound 0.3162 µM) was 0.36. It also gave a relative viability (NCI-H661; first compound 1 µM) of 0.36.
